Data: publication PMC12979188, “Systematic analyses of lipid mobilization by human lipid transfer proteins” (Nature, 2026)

How the values were obtained:
[1] = target: RBP4 (Homo sapiens, UniProt P02753); test: affinity purification, SEC and mass spectrometry lipidomics; assay type: cell-based; settings: in cellulo, HEK293; retinoid form not specified beyond vitamin A
[2] = target: T1, RBP1 (Homo sapiens, UniProt P09455); test: as above; assay type: cell-based; settings: in cellulo, HEK293; retinoid form not specified beyond vitamin A
T1 sequence (P09455 1-135): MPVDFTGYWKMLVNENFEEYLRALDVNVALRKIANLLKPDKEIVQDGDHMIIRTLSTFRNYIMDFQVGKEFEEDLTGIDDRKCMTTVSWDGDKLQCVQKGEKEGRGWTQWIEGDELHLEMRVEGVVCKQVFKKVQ

CC1=C(/C=C/C(C)=C/C=C/C(C)=C/CO)C(C)(C)CCC1 [vitamin A]
affinity purification, SEC and mass spectrometry lipidomics [1]: RBP1 and RBP4 formed complexes with vitamin A only in the cellular context | affinity purification, SEC and mass spectrometry lipidomics [2]: RBP1 and RBP4 formed complexes with vitamin A only in the cellular context
